Values of other authors in patent publication US20020054921A1, “Use of phyllanthus components for the treatment or prophylaxis of infections triggered by flavivirdae” (priority 2000, published 2002).

Legend:
[1] = system: Ca^2+-dependent protein kinase of the wheat embryo; conditions: wheat embryo Ca^2+-dependent protein kinase
[2] = system: Ca^2+ and phospholipid-dependent protein kinase C (PKC) of the rat brain
[3] = biological target: T1, cAMP-dependent protein kinase of the rat liver (Rattus norvegicus, UniProt P27791)
T1 construct: the cAMP-dependent protein kinase of the rat liver; host or cells: rat liver

Staphylococcus aureus = conditions: 0.1 ml added; extract 50 mg/ml, streptomycin 10 mg/ml
Bacillus subtilis = conditions: 0.1 ml added; extract 50 mg/ml, streptomycin 10 mg/ml

Row | Compound | inhibition of protein kinase [1] | inhibition of protein kinase [2] | inhibition of protein kinase [3] | inhibition zone (Staphylococcus aureus) [mm] | inhibition zone (Bacillus subtilis) [mm]
1 | O=C1OC2C3OC(=O)C4=CC(=O)C5(O)Oc6c(O)c(O)cc(c6C4C5(O)O)C(=O)OC2C(OC(=O)c2cc(O)c(O)c(O)c2)OC3COC(=O)c2cc(O)c(O)c3c2C2C1=CC(=O)C(O)(O3)C2(O)O (centres unmarked) [amariin] | most effective | most effective | most effective |  | 
2 | [H]/N=C(/N)N[C@H]1[C@H](O)[C@@H](O)[C@H](O[C@@H]2O[C@@H](C)[C@](O)(C=O)[C@H]2O[C@@H]2O[C@@H](CO)[C@H](O)[C@@H](O)[C@@H]2NC)[C@@H](N/C(N)=N\[H])[C@@H]1O [streptomycin] |  |  |  | 35 | 35
3 | geraiin | most effective | most effective | most effective |  | 
